Test results: patent US20240383875A1, “Benzimidazole Pyridine Derivatives” (Hoffmann-La Roche Inc., priority 2022, published 2024)

Columns and labels:
Type in all cases: biochemical
SIK1 = SIK1 (Homo sapiens, UniProt P57059); experiment: Enzymatic activity assay SIK1, RapidFire mass spectrometry (phosphorylation of CHK-peptide); settings: RapidFire MS, inhibition of SIK1; read-out: SIK1 RF IC50
Procedure, shortened: (§1)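 Compounds (12-point, 3-fold, generally 30 μM to 170 pM) were pre-incubated 30 min at ambient temperature with SIK1 (5 nM), SIK2 (0.5 nM) or SIK3 (1.5 nM) in HEPES pH 7.0/magnesium acetate buffer. CHK-peptide (10 μM solution) and ATP (100 μM solution) were then added for 45 min before formic acid quench.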

SIK2 = SIK2 (Homo sapiens, UniProt Q9H0K1); experiment: Enzymatic activity assay SIK2, RapidFire mass spectrometry (phosphorylation of CHK-peptide); settings: RapidFire MS, inhibition of SIK2; read-out: SIK2 RF IC50
Procedure, shortened: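 SIK2 (0.5 nM) in pH 7.0 HEPES buffer with 10 mM Mg acetate phosphorylates CHK-peptide (10 μM solution) with 100 μM ATP solution, 45 min ambient, then formic acid quench.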

SIK3 = SIK3 (Homo sapiens, UniProt Q9Y2K2); experiment: Enzymatic activity assay SIK3, RapidFire mass spectrometry (phosphorylation of CHK-peptide); settings: RapidFire MS, inhibition of SIK3; read-out: SIK3 RF IC50
Procedure, shortened: as §1

Sequence of SIK3 (Q9Y2K2 whole entry): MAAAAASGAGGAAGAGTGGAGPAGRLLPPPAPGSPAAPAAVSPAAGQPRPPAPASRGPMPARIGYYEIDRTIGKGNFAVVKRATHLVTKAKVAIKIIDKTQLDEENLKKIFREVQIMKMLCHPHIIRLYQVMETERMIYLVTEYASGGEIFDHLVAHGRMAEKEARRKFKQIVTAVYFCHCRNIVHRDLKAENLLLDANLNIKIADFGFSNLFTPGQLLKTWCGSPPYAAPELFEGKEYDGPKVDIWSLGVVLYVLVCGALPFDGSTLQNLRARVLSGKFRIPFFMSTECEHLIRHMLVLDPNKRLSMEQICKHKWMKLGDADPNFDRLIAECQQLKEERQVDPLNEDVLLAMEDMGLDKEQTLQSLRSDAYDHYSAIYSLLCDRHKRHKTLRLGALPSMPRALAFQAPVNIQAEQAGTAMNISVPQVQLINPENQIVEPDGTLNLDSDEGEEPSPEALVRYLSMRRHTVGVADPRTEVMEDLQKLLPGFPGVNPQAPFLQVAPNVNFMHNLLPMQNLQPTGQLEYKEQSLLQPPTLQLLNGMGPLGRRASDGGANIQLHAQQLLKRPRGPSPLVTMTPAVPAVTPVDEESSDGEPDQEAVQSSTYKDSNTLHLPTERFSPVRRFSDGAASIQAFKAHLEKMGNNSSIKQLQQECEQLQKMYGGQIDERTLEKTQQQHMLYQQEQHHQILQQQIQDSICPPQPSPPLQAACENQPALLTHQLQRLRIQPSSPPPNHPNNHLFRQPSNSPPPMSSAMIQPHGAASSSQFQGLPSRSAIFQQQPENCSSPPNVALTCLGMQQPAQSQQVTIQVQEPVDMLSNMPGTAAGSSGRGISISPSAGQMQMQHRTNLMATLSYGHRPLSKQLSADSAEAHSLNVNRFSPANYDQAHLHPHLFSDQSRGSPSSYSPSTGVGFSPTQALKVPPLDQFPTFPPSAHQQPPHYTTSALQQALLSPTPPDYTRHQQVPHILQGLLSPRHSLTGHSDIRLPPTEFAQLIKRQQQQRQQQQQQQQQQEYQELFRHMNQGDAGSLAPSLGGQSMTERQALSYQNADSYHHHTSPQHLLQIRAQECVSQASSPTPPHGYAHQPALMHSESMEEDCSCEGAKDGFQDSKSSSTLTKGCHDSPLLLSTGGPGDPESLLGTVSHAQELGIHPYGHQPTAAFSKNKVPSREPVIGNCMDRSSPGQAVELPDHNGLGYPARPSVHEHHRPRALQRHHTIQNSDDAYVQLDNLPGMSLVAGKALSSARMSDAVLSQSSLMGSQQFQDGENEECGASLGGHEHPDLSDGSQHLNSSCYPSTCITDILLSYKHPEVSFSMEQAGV
Sequence of SIK2 (Q9H0K1 whole entry): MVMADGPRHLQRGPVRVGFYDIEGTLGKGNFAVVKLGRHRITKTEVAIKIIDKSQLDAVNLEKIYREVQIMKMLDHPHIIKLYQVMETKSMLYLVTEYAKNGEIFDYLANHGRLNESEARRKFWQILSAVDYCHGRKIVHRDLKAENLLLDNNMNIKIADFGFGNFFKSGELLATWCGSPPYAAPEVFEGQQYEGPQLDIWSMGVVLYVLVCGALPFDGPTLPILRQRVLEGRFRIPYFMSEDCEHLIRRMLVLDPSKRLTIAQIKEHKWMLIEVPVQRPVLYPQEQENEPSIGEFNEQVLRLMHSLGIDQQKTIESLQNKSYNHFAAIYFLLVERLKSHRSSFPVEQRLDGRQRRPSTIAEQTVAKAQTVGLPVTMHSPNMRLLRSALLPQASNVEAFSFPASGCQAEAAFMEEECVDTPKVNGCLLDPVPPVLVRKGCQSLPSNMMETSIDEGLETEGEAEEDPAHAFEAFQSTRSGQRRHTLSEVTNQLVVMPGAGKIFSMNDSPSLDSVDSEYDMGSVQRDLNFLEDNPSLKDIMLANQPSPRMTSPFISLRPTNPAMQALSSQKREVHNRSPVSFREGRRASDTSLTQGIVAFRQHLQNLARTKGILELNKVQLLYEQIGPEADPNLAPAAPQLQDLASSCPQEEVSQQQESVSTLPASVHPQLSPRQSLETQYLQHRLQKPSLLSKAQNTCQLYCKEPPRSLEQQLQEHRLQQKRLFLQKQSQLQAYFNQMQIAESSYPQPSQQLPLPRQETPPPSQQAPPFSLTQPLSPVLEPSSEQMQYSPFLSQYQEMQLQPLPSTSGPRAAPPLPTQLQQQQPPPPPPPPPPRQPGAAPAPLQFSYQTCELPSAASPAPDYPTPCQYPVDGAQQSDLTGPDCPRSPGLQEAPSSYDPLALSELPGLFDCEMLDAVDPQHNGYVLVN
Sequence of SIK1 (P57059 whole entry): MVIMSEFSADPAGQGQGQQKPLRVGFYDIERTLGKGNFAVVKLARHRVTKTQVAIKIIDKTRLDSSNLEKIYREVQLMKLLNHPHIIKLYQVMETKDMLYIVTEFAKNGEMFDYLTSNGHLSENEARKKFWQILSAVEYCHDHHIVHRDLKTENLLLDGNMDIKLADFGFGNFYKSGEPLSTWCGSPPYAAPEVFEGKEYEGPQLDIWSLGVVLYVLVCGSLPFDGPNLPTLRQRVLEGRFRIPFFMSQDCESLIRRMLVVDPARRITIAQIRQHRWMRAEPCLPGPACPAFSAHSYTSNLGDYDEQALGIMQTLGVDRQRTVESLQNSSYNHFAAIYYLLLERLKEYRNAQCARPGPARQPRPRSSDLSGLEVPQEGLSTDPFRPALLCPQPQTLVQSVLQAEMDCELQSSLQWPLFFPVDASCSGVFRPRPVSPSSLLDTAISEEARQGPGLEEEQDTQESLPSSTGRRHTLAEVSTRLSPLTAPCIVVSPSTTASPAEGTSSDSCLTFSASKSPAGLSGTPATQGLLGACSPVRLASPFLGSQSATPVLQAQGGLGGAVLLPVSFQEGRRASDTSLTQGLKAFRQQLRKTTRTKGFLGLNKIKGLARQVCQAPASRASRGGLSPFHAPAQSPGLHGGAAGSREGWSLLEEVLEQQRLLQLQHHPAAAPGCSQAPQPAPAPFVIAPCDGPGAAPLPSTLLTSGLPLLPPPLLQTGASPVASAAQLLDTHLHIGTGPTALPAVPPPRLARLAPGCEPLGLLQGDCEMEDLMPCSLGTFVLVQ

SMILES	IC50 (SIK1) [nM]	IC50 (SIK2) [nM]	IC50 (SIK3) [nM]
COc1cc(C)n(-c2nc(-n3cnc4cc(Nc5ccc(C)nn5)ccc43)ccc2CO)n1 [Example 158, [2-(3-methoxy-5-methyl-pyrazol-1-yl)-6-[5-[(6-methylpyridazin-3-yl)amino]benzimidazol-1-yl]-3-pyridyl]methanol]	2150	41.9	12.8
Cc1ccc(Nc2ccc3c(c2)ncn3-c2ccc(C(C)O)c(-c3c(C)noc3C)n2)nn1 (stereo not drawn) [Example 159, 1-[2-(3,5-Dimethylisoxazol-4-yl)-6-[5-[(6-methylpyridazin-3-yl)amino]benzimidazol-1-yl]-3-pyridyl]ethanol]	23800	306	70.2
COc1cc2ncn(-c3ccc(CO)c(N4CCCC4=O)n3)c2cc1OC [Example 33, 1-(6-(5,6-Dimethoxy-1H-benzo[d]imidazol-1-yl)-3-(hydroxymethyl)pyridin-2-yl)pyrrolidin-2-one]	320	402	1940
Cc1cc(C#N)nn1-c1nc(-n2cnc3cc(Nc4ccc(OCC(F)F)nn4)ccc32)ccc1C(C)O (stereo not drawn) [Example 195, 1-[6-[5-[[6-(2,2-Difluoroethoxy)pyridazin-3-yl]amino]benzimidazol-1-yl]-3-(1-hydroxyethyl)-2-pyridyl]-5-methyl-pyrazole-3-carbonitrile]	20	3.1	1.4
CNc1ncccc1-c1nc(-n2cnc3cc(Nc4ccc(C)nn4)ccc32)ccc1C(C)O (stereo not drawn) [Example 179, 1-[2-[2-(Methylamino)-3-pyridyl]-6-[5-[(6-methylpyridazin-3-yl)amino]benzimidazol-1-yl]-3-pyridyl]ethanol; formic acid]	> 30000	414	74.3
Cc1ccc(Nc2ccc3ncn(-c4ccc(C(C)O)c(NCC5(C#N)CC5)n4)c3c2)nn1 (stereo not drawn) [Example 117, 1-[[[3-(1-Hydroxyethyl)-6-[6-[(6-methylpyridazin-3-yl)amino]benzimidazol-1-yl]-2-pyridyl]amino]methyl]cyclopropanecarbonitrile; formic acid]	3530	1020	365
COc1cc2ncn(-c3ccc(C(O)C4CC4)c(-c4cccc(Cl)c4)n3)c2cc1OC (stereo not drawn) [Example 25, (2-(3-Chlorophenyl)-6-(5,6-dimethoxy-1H-benzo[d]imidazol-1-yl)pyridin-3-yl)(cyclopropyl)methanol]	777	605	987
COc1cc2ncn(-c3ccc(CO)c(NCCCCO)n3)c2cc1OC [Example 34, 4-((6-(5,6-Dimethoxy-1H-benzo[d]imidazol-1-yl)-3-(hydroxymethyl)pyridin-2-yl)amino)butan-1-ol]	508	377	1680
Cc1ccc(Nc2ccc3c(c2)ncn3-c2ccc(C(C)O)c(N(C)CC3(C#N)CC3)n2)nn1 (stereo not drawn) [Example 173, 1-[[[3-(1-Hydroxyethyl)-6-[5-[(6-methylpyridazin-3-yl)amino]benzimidazol-1-yl]-2-pyridyl]-methyl-amino]methyl]cyclopropanecarbonitrile]	3490	198	53.9
CCOc1cc(C)n(-c2nc(-n3cnc4cc(Nc5ccc(C)nn5)ccc43)ccc2C(C)O)n1 (stereo not drawn) [Example 133, 1-[2-(3-Ethoxy-5-methyl-pyrazol-1-yl)-6-[5-[(6-methylpyridazin-3-yl)amino]benzimidazol-1-yl]-3-pyridyl]ethanol; formic acid]	447	7.7	2.2
Cc1cc(C#N)nn1-c1nc(-n2cnc3cc(Nc4ccc(C(F)F)nn4)ccc32)ccc1C(C)O (stereo not drawn) [Example 90, 1-[6-[5-[[6-(Difluoromethyl)pyridazin-3-yl]amino]benzimidazol-1-yl]-3-(1-hydroxyethyl)-2-pyridyl]-5-methyl-pyrazole-3-carbonitrile]	53	0.9	0.5

Next, values leading:

IC50 (SIK1) [nM]	IC50 (SIK2) [nM]	IC50 (SIK3) [nM]	SMILES
851	2.6	1.5	CCn1cc(-c2nc(-n3cnc4cc(Nc5ccc(C)nn5)ccc43)ccc2C(C)O)c(C)n1 (stereo not drawn) [Example 264, 1-[2-(1-Ethyl-3-methyl-pyrazol-4-yl)-6-[5-[(6-methylpyridazin-3-yl)amino]benzimidazol-1-yl]-3-pyridyl]ethanol; formic acid]
173	1.8	0.9	COc1cc(Cl)nnc1Nc1ccc2c(c1)ncn2-c1ccc(C(C)O)c(-n2nc(C#N)cc2C)n1 (stereo not drawn) [Example 241, 1-[6-[5-[(6-Chloro-4-methoxy-pyridazin-3-yl)amino]benzimidazol-1-yl]-3-(1-hydroxyethyl)-2-pyridyl]-5-methyl-pyrazole-3-carbonitrile]
2	0.3	3	Cc1ccc(Nc2cc3c(cc2OCCN2CCOCC2)ncn3-c2ccc(C(C)O)c(-n3nc(C#N)cc3C)n2)cn1 (stereo not drawn) [Example 294, 1-[3-(1-hydroxyethyl)-6-[6-[(6-methyl-3-pyridyl)amino]-5-(2-morpholinoethoxy)benzimidazol-1-yl]-2-pyridyl]-5-methyl-pyrazole-3-carbonitrile]
462	29.7	4.8	Cc1ccc(Nc2ccc3c(c2)ncn3-c2ccc(C(C)O)c(O[C@H]3CCNC3)n2)nn1 (stereo partly drawn) [Example 208, 1-[6-[5-[(6-Methylpyridazin-3-yl)amino]benzimidazol-1-yl]-2-[(3S)-pyrrolidin-3-yl]oxy-3-pyridyl]ethanol]
39	0.6	1	Cc1ccc(Nc2ccc3c(c2)ncn3-c2ccc(C(C)O)c(-c3cn(CC(F)CF)nc3C)n2)nn1 (stereo not drawn) [Example 399, 1-[2-[1-(2,3-difluoropropyl)-3-methyl-pyrazol-4-yl]-6-[5-[(6-methylpyridazin-3-yl)amino]benzimidazol-1-yl]-3-pyridyl]ethanol]
12800	194	30.4	Cc1ccc(Nc2ccc3c(c2)ncn3-c2ccc(C(C)O)c(-c3cc(C#N)nn3C)n2)nn1 (stereo not drawn) [Example 255, 5-[3-(1-hydroxyethyl)-6-[5-[(6-methylpyridazin-3-yl)amino]benzimidazol-1-yl]-2-pyridyl]-1-methyl-pyrazole-3-carbonitrile]
39	26.3	149	Cc1ccc(Nc2ccc3ncn(-c4ccc([C@H](C)O)c(-n5nc(C#N)cc5C)n4)c3c2)nn1 [Example 280, 1-[3-[(1S)-1-hydroxyethyl]-6-[6-[(6-methylpyridazin-3-yl)amino]benzimidazol-1-yl]-2-pyridyl]-5-methyl-pyrazole-3-carbonitrile]
245	0.9	1.7	Cc1ccc(Nc2cc3ncn(-c4ccc(C(C)O)c(-c5cn(CC6CC6)nc5C)n4)c3cc2F)nn1 (stereo not drawn) [Example 356, 1-[2-[1-(cyclopropylmethyl)-3-methyl-pyrazol-4-yl]-6-[6-fluoro-5-[(6-methylpyridazin-3-yl)amino]benzimidazol-1-yl]-3-pyridyl]ethanol]
230	60.6	218	Cc1ccc(Nc2cc3c(cc2OC2COC2)ncn3-c2ccc(C(C)O)c(-n3nc(OC(F)F)cc3C)n2)nn1 (stereo not drawn) [Example 353, 1-[2-[3-(difluoromethoxy)-5-methyl-pyrazol-1-yl]-6-[6-[(6-methylpyridazin-3-yl)amino]-5-(oxetan-3-yloxy)benzimidazol-1-yl]-3-pyridyl]ethanol]
109	0.8	0.4	Cc1ccc(Nc2ccc3c(c2)ncn3-c2ccc([C@H](C)O)c(-n3nc(C(F)F)cc3C(F)F)n2)nn1 [Example 287, (1S)-1-[2-[3,5-bis(difluoromethyl)pyrazol-1-yl]-6-[5-[(6-methylpyridazin-3-yl)amino]benzimidazol-1-yl]-3-pyridyl]ethanol]
273	95.4	37.2	Cc1cc(C#N)nn1-c1nc(-n2cnc3cc(Nc4ccc(C5CCCN5C5COC5)nn4)ccc32)ccc1C(C)O (stereo not drawn) [Example 304, 1-[3-(1-hydroxyethyl)-6-[5-[[6-[1-(oxetan-3-yl)pyrrolidin-2-yl]pyridazin-3-yl]amino]benzimidazol-1-yl]-2-pyridyl]-5-methyl-pyrazole-3-carbonitrile]
1090	7.3	2.9	Cc1ccc(Nc2ccc3c(c2)ncn3-c2ccc(CO)c(-c3cn(CC(F)(F)F)nc3C)n2)nn1 [Example 315, [6-[5-[(6-methylpyridazin-3-yl)amino]benzimidazol-1-yl]-2-[3-methyl-1-(2,2,2-trifluoroethyl)pyrazol-4-yl]-3-pyridyl]methanol]
133	1	1.4	Cc1ccc(Nc2cc3ncn(-c4ccc(C(C)O)c(-c5cc(OC(F)F)ncc5C)n4)c3cc2F)nn1 (stereo not drawn) [Example 346, 1-[2-[2-(difluoromethoxy)-5-methyl-4-pyridyl]-6-[6-fluoro-5-[(6-methylpyridazin-3-yl)amino]benzimidazol-1-yl]-3-pyridyl]ethanol]
13	0.3	0.6	COc1cc2c(cc1Nc1cc3c(nn1)CCOC3)ncn2-c1ccc(C(C)O)c(-n2nc(C#N)cc2C)n1 (stereo not drawn) [Example 394, 1-[6-[5-(7,8-dihydro-5~{H}-pyrano[4,3-c]pyridazin-3-ylamino)-6-methoxy-benzimidazol-1-yl]-3-(1-hydroxyethyl)-2-pyridyl]-5-methyl-pyrazole-3-carbonitrile]
